Results reported in patent US5173500A, “Pharmaceutical compositions and methods of sulphonamides containing a tetrazolyl radical” (Boehringer Mannheim GmbH, priority 1988, dated 1992).

Tests used:
[1] = system: thrombocyte aggregation induced by thromboxane mimetic U 46619 (TX antagonistic effect); experiment: Thrombocyte aggregation induced by U 46619 in platelet-rich plasma (method of Born and Cross); format: cell-based; details: Homo sapiens, 5 min; platelet-rich plasma of healthy blood donors; aggregation induced by U 46619, followed over 5 minutes
Excerpt: Thrombocyte aggregation was investigated by the method of Born to Cross (J. Physiol. 168, 178 (1963)) in platelet-rich plasma of healthy blood donors. To inhibit clotting, the blood was mixed with 3.2% citrate in a ration by volume 1:9.
To induce thrombocyte aggregation, U 46619 (Upjohn & Co., Kalamazoo, Mich., USA), which is a stable analog of the prostagladin endoperoxide PHG2, was used. U 46619 has been characterized as a selective thromboxane mimetic (Coleman et al., Brit. J. Pharmacol. 68, 127 P., 1980).
The aggregation test was carried out in a 4-channel aggregometer (Profiler®, of the Bio/Data Co., USA). The course of the aggregation was followed over a period of 5 minutes. At the end of the test, the degree of aggregation attained was printed out. These values, which were obtained in the presence of different concentrations of the substance being tested, were used for the determination of the IC50 value for the TX antagonistic effect. The effectiveness varies inversely with the IC50 value.

[2] = system: Male NMRI mice challenged with lethal dose of U 46619; experiment: Survival of mice after lethal i.v. injection of thromboxane mimetic U 46619; format: in vivo; details: Mus musculus, iv, lethal dose U 46619 (800-1000 ug/kg) i.v. after 4 hours; for responders at 1 mg/kg: 1 mg/kg by stomach tube in 1% methylcellulose, read-out: Survival Rate of Mouse 1 mg/kg, 4 h in %; for responders at 25 mg/kg: 25 mg/kg by stomach tube in 1% methylcellulose, read-out: Survival Rate of Mouse 25 mg/kg, 4 h in %
Experimental: Male NMRI mice, with a body weight of 25 g, were used. The test substance was suspended in 1% methylcellulose and administered to the experimental animals with the aid of a stomach tube. The provacation test consisted of injecting a lethal dose (800-1000/ug/kg) of the thromboxane mimetic (U 46619, Upjohn Co.) rapidly into the tail vein. The duration of the specific antagonistic effect was tested by pretreating the animals with 25 or 1 mg/kg of the different test substances and injecting U 46619 after 4 hours. The survival rate indicates how many of the animals which were used survived the injection of the thromboxane mimetic.

SMILES | IC50 [1] | responders at 1 mg/kg [2] | responders at 25 mg/kg [2]
O=C(CCC(=O)c1ccc(CCNS(=O)(=O)c2ccc(Br)cc2)cc1)Nc1nnn[nH]1 [6/III, 4-Oxo-4-{4-[2-(4-bromobenzenesulphonamido)-ethyl]-phenyl}-butyric acid (1H-tetrazol-5-yl)-amide] | 55 µM | 100% | 100%
O=C(COc1cccc(CCNS(=O)(=O)c2ccc(Cl)cc2)c1)Nc1nnn[nH]1 [Example 2, 3-[2-(4-Chlorobenzenesulphonamido)-ethyl]-phenoxyacetic acid (1H-tetrazol-5-yl)-amide] | 6 µM | 100% | 100%
O=S(=O)(NCCc1ccc(Nc2nnn[nH]2)cc1)c1ccc(Cl)cc1 [Example 3, 4-[2-(4-Chlorobenzenesulphonamido)-ethyl]-N-(1H-tetrazole-5-yl)-aniline] | 0.2 µM | 20% | 100%
O=C(COc1ccc(CCNS(=O)(=O)c2ccc(Cl)cc2)cc1)Nc1nnn[nH]1 [Example 4, 4-[2-(4-Chlorobenzenesulphonamido)-ethyl]-phenoxyacetic acid (1H-tetrazol-5-yl)-amide] | 9 µM | 80% | 100%
O=C(Cc1ccc(CCNS(=O)(=O)c2ccc(Cl)cc2)cc1)Nc1nnn[nH]1 [Example 5, 4-[2-(4-Chlorobenzenesulphonamido)-ethyl]-phenylacetic acid (1H-tetrazol-5-yl)-amide] | 0.9 µM | 80% | 100%
O=S(=O)(NCCc1ccc(Cc2nnn[nH]2)cc1)c1ccc(Cl)cc1 [Example 8, 5-{4-[2-(4-Chlorobenzenesulphonamido)-ethyl]-phenyl-methyl}-1H-tetrazole] | 0.07 µM | 100% | 100%
Cc1ccc(S(=O)(=O)NCCc2cccc(OCC(=O)Nc3nnn[nH]3)c2)cc1 [Example 15, 3-[2-(4-Methylbenzenesulphonamido)-ethyl]-phenoxyacetic acid (1H-tetrazol-5-yl)-amide] | 24 µM | 100% | 100%
O=C(COc1cccc(CCNS(=O)(=O)c2ccccc2Cl)c1)Nc1nnn[nH]1 [Example 16, 3-[2-(2-Chlorobenzenesulphonamido)-ethyl]-phenoxyacetic acid (1H-tetrazol-5-yl)-amide] | 17 µM | 40% | 100%
